Measured values: US20190365675A1, “COMPOSITIONS FOR THE PREVENTION AND/OR TREATMENT OF ALCOHOL USE DISORDERS” (SERVICIO ANDALUZ DE SALUD, priority 2016, published 2019)

Key:
MCP-1 = MCP-1 levels (ELISA) in frontal cortex after ethanol intoxication; format: in vivo, Wistar rats; conditions: OEA pre-treatment
Experimental: (§1) The animals were treated with intragastric (i.g.) ethanol 3 times a day using an i.g. cannula (16G needle, Fisher Scientific, Waltham, Mass., USA), following a protocol based on a slightly modified standard 4-day alcohol intoxication pattern (Bernier et al., 2002a, b) (FIG. 1A). The ethanol doses were administered every 8 h for a total time of 4 days. The rats treated with ethanol received an initial loading dose of 5 g/kg of ethanol in a 30% solution (w/v) and then a maximum maintenance dose of 3 g/kg, which were determined based on blood ethanol levels (BEL). This repeated standard alcohol intoxication paradigm kept BEL intoxication relatively constant in a range of sedation/ataxia (190 to 430 mg/dl, Table 3), according to the 6-point alcohol intoxication behavior scale (Majchrowicz, 1975). The mean dose of ethanol/rat/day (days 1-4) was 7.06 g/kg, similar to other studies (Obernier et al., 2002a, b). […] The levels of soluble HMGB1, TNF-α, IL-1β and MCP-1 were determined by means of a commercially available enzyme-linked immunosorbent assay kit (ELISA) (Elabscience Biotechnology Co., Ltd., China, for HMGB-1; RayBiotech®, GA, USA, for TNF-α, IL-1β, and MCP-1). The nuclear/cytosol HMGB1 fraction was determined by means of Western blot analysis.

4-hydroxynonenal (4-HNE) = assay: Lipid peroxidation (HNE adduct ELISA) in frontal cortex after ethanol intoxication; format: in vivo, Wistar rats; conditions: significant only in animals treated with ethanol, OEA pre-treatment
Experimental: as §1, with “b). OEA (5 mg/kg, i.p., except initial dose of 10 mg/kg i.p.; synthesized as described in Giuffrida et al., 2000) was dissolved in the vehicle (5% Tween-80 in saline solution) and injected 10 minutes before each of the administrations of ethanol by an intragastric gavage.” for “b).”, “HNE protein adducts in cerebral cortex lysates” for “soluble HMGB1, TNF-α, IL-1β and MCP-1”, “measured using an OxiSelect™ HNE adduct competitive ELISA 96-well” for “determined by means of a commercially available enzyme-linked immunosorbent assay”, “(Cell Biolabs®, San Diego, Calif., USA).” for “(ELISA) (Elabscience Biotechnology Co., Ltd., China, for HMGB-1; RayBiotech®, GA, USA, for TNF-α, IL-1β, and MCP-1). The nuclear/cytosol HMGB1 fraction was determined by means of Western blot analysis.”

Question: What does the source list for `CCCCCCCC/C=C\CCCCCCCC(=O)NCCO` [OEA, oleoylethanolamide]?
Answer: Ethanol-induced increase in MCP-1 levels (MCP-1): prevented; Formation of HNE (lipid peroxidation) (4-hydroxynonenal (4-HNE)): reduced
